Measured values reported in patent US7998987B2, “Inhibitors of c-Met and uses thereof” (Vertex Pharmaceuticals Incorporated, priority 2005, dated 2011).
pKi: −log10 of the molar value.

molecular target: c-Met (Homo sapiens, UniProt P08581); assay: Ki determination for the inhibition of c-Met kinase activity (standard coupled enzyme system); assay type: biochemical; conditions: coupled enzyme system, 200 μM ATP, 80 nM c-Met, 30° C.; read-out: c-Met Ki
Experimental: Ki Determination for the Inhibition of c-Met
Reactions were carried out in a solution containing 100 mM HEPES (pH 7.5), 10 mM MgCl2, 25 mM NaCl, 300 μM NADH, 1 mM DTT, and 1.5% DMSO. Final substrate concentrations in the assay were 200 μM ATP (Sigma Chemicals, St Louis, Mo.) and 10 μM polyGluTyr (Sigma Chemical Company, St. Louis). Reactions were carried out at 30° C. and 80 nM c-Met. Final concentrations of the components of the coupled enzyme system were 2.5 mM phosphoenolpyruvate, 300 μM NADH, 30 μg/ml pyruvate kinase and 10 μg/ml lactate dehydrogenase.
An assay stock buffer solution was prepared containing all of the reagents listed above with the exception of ATP and a test compound of the present invention. […] The reaction was initiated by the addition of 20 μL of ATP (final concentration 200 μM). Rates of reaction were obtained using a Molecular Devices Spectramax plate reader (Sunnyvale, Calif.) over 10 minutes at 30° C. The Ki values were determined from the rate data as a function of inhibitor concentration.

Sequence of c-Met (P08581 25-1390): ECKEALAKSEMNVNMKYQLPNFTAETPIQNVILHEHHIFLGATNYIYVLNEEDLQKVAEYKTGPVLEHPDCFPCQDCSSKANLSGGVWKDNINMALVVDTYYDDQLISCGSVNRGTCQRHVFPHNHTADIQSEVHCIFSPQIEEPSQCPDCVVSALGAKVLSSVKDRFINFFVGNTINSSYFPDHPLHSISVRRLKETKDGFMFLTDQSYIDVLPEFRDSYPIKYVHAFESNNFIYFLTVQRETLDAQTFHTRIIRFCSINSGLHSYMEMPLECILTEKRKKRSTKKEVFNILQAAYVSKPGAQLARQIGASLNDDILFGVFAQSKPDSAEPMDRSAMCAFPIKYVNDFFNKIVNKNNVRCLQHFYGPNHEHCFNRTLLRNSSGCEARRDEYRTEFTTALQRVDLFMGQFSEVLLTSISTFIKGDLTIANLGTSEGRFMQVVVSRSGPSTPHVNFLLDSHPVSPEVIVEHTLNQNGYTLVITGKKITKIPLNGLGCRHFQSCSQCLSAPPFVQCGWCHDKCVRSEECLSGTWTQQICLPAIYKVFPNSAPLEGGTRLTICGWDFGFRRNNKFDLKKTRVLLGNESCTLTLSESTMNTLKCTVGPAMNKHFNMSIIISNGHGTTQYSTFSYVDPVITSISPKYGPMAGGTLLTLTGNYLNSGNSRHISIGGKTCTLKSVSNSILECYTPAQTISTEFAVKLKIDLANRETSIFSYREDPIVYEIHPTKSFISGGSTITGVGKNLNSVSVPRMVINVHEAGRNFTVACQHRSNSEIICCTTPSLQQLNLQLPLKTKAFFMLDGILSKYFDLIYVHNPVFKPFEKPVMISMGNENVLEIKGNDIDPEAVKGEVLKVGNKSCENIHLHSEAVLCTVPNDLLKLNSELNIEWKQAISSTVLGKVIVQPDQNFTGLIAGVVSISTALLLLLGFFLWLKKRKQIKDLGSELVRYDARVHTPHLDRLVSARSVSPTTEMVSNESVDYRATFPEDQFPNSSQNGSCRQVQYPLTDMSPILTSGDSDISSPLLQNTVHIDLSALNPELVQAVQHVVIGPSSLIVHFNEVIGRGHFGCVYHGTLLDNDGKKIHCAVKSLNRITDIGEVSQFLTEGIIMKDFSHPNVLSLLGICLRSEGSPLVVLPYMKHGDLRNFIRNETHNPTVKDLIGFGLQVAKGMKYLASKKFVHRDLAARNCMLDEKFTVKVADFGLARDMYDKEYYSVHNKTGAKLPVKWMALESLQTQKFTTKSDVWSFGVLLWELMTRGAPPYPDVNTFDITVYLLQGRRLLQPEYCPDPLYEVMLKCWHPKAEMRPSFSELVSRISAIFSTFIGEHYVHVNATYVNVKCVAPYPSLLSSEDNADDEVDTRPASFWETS

SMILES | pKi
Fc1ccc(Cc2nnc3ccc(Nc4cccc(Cl)c4)nn23)cc1 [Compound 402] | > 7.00
C[C@@H](c1ccc(O)cc1)c1nnc2ccc(Nc3nc4ccc(Cl)cc4s3)nn12 [Compound 483] | > 7.00
O=[N+]([O-])c1ncccc1OCc1nnc2ccc(Nc3cccc(Cl)c3)nn12 [Compound 408] | < 5.70
O=C(Nc1ccc2nnc(Cc3ccc(O)cc3)n2n1)c1cccc(Cl)c1 [Compound 398] | < 5.70
COC(=O)c1ccc(NCc2nnc3ccc(Nc4cccc(Cl)c4)nn23)nc1 [Compound 479] | 5.70 to 7.00
CCc1cccc(Nc2ccc3nnc(Cc4ccc(O)cc4)n3n2)c1 [Compound 288] | > 7.00
N#Cc1ccc(OCc2nnc3ccc(Nc4cccc(Cl)c4)nn23)cc1 [Compound 379] | < 5.70
Clc1cccc(Nc2ccc3nnc(C4(c5ccc6c(c5)OCO6)CC4)n3n2)c1 [Compound 400] | > 7.00
O=C(O)c1cc(O)ccc1NCc1nnc2ccc(Nc3cccc(Cl)c3)nn12 [Compound 340] | < 5.70
c1csc(C2=Nn3c(Cc4ccc5c(c4)OCO5)nnc3SC2)c1 [Compound 544] | > 7.00
Fc1ccc(SCc2nnc3ccc(Nc4cccc(Cl)c4)nn23)c(F)c1 [Compound 405] | < 5.70
Fc1ccc(NCc2nnc3ccc(Nc4cccc(Cl)c4)nn23)cc1 [Compound 343] | < 5.70
Clc1cccc(Nc2ccc3nnc(CNc4ccc5[nH]ncc5c4)n3n2)c1 [Compound 488] | 5.70 to 7.00
Clc1cccc(Nc2ccc3nnc(CSc4ccccc4)n3n2)c1 [Compound 387] | < 5.70
Clc1cccc(Nc2ccc3nnc(COc4ccccn4)n3n2)c1 [Compound 373] | < 5.70
CCC(c1ccc(OC)cc1)c1nnc2ccc(Nc3cccc(Cl)c3)nn12 (stereo not shown) [Compound 357] | > 7.00
COc1ccc(Cc2nnc3n2N=C(c2cccs2)CS3)cc1 [Compound 547] | 5.70 to 7.00
Oc1ccc(Cc2nnc3ccc(Sc4cccc(Cl)c4)nn23)cc1 [Compound 305] | > 7.00
CCOC(=O)C1=Nn2c(Cc3ccc(O)cc3)nnc2SC1 [Compound 534] | 5.70 to 7.00
COCCC(=O)N[C@H]1CCCC[C@@H]1Nc1ccc2nnc([C@@H](C)c3ccc(O)cc3)n2n1 [Compound 449] | < 5.70
C[C@@H](c1ccc(O)cc1)c1nnc2ccc(Sc3nc[nH]n3)nn12 [Compound 508] | 5.70 to 7.00

SMILES | pKi
CCC(c1ccc(O)cc1)c1nnc2ccc(Nc3cccc(Cl)c3)nn12 (stereo not shown) [Compound 367] | > 7.00
Oc1ccc(Cc2nnc3ccc(Nc4cc(F)cc(F)c4)nn23)cc1F [Compound 298] | > 7.00
CS(=O)(=O)Nc1cccc(Cc2nnc3n2N=C(c2ccccc2)CS3)c1 [Compound 526] | < 5.70
C[C@@H](c1ccc(O)cc1)c1nnc2ccc(Nc3nncs3)nn12 [Compound 484] | 5.70 to 7.00
CC(=O)N1CCC(Nc2ccc3nnc(Cc4ccc(O)cc4)n3n2)CC1 [Compound 323] | 5.70 to 7.00
Clc1cccc(Nc2ccc3nnc(COc4cccc(Cl)c4)n3n2)c1 [Compound 384] | < 5.70
C[C@@H](c1ccc(O)cc1)c1nnc2ccc(Nc3cccc(Cl)c3)nn12 [Compound 320] | > 7.00
Oc1ccc(Cc2nnc3ccc(Nc4cc(Cl)ccc4F)nn23)cc1 [Compound 359] | > 7.00
Fc1ccc(C2(c3nnc4ccc(Nc5cccc(Cl)c5)nn34)CCCC2)cc1 [Compound 416] | < 5.70
C[C@@H](c1ccc(O)cc1)c1nnc2ccc(Sc3ncc[nH]3)nn12 [Compound 511] | < 5.70
CC[C@H](CO)Nc1ccc2nnc(Cc3ccc(O)cc3)n2n1 [Compound 312] | 5.70 to 7.00
C=CCc1ccccc1OCc1nnc2ccc(Nc3cccc(Cl)c3)nn12 [Compound 383] | < 5.70
Fc1ccc(Cc2nnc3ccc(Nc4cccc(Cl)c4)nn23)c(Cl)c1 [Compound 314] | 5.70 to 7.00
COc1ccc(Cc2nnc3n2N=C(c2ccccc2)CS3)cc1F [Compound 531] | < 5.70
C[C@H](Nc1ccc2nnc(Cc3ccc(O)cc3)n2n1)c1ccccc1 [Compound 310] | 5.70 to 7.00
Clc1cccc(Nc2ccc3nnc(COc4c[nH]c5ccccc45)n3n2)c1 [Compound 491] | < 5.70
Oc1ccc(Cc2nnc3ccc(Nc4nncs4)nn23)cc1 [Compound 482] | < 5.70
COc1ccc(NCc2nnc3ccc(Nc4cccc(Cl)c4)nn23)cc1O [Compound 335] | < 5.70
COc1ccc(Cc2nnc3n2N=C(c2ccccc2)CS3)cc1 [Compound 530] | 5.70 to 7.00
CC(C)C(=O)N1CCC(Nc2ccc3nnc(Cc4ccc(O)cc4)n3n2)CC1 [Compound 324] | 5.70 to 7.00

same assay, conditions: coupled enzyme system, 200 μM ATP, 10 μM polyGluTyr, 80 nM c-Met, 30° C.; read-out: c-Met Ki

SMILES | pKi
Oc1ccc(Cc2nnc3ccc(NCc4ccccc4)nn23)cc1 [Compound 277] | 5.70 to 7.00
Oc1ccc(Cc2nnc3ccc(NC4c5ccccc5CC4O)nn23)cc1 (stereo not shown) [Compound 217] | 5.70 to 7.00
Oc1cccc2c1ccn2Cc1nnc2sc(Nc3cccc(C(F)(F)F)c3)nn12 [Compound 160] | > 7.00
NC(=O)[C@H]1CCC[C@H]1Nc1ccc2nnc(Cc3ccc(O)cc3)n2n1 [Compound 203] | < 5.70
Cc1cccc(Nc2ccc3nnc(Cc4ccc5c(c4)OCO5)n3n2)c1 [Compound 230] | 5.70 to 7.00
COc1ccc(Cc2nnc3ccc(Nc4cccc(C(C)O)c4)nn23)cc1 (stereo not shown) [Compound 257] | 5.70 to 7.00
c1cncc(Nc2nn3c(Cc4ccc5c(c4)OCO5)nnc3s2)c1 [Compound 84] | 5.70 to 7.00
COc1ccccc1Nc1nn2c(Cc3ccc(O)c(F)c3)nnc2s1 [Compound 30] | 5.70 to 7.00
Oc1cccc(Cc2nnc3sc(Nc4cc(F)cc(F)c4)nn23)c1 [Compound 124] | 5.70 to 7.00
C[C@@H](Nc1ccc2nnc(Cc3ccc(O)cc3)n2n1)C1CCCCC1 [Compound 189] | 5.70 to 7.00
COc1ccccc1Nc1nn2c(Cc3ccc4c(c3)OCO4)nnc2s1 [Compound 28] | 5.70 to 7.00
CCC(C)Nc1ccc2nnc(Cc3ccc(O)cc3)n2n1 (stereo not shown) [Compound 278] | 5.70 to 7.00
COc1cccc(Nc2nn3c(Cc4ccc(O)c(F)c4)nnc3s2)c1 [Compound 35] | 5.70 to 7.00
Fc1cc(F)cc(Nc2ccc3nnc(Cc4ccncc4)n3n2)c1 [Compound 254] | 5.70 to 7.00
Oc1ccc(CCc2nnc3sc(Nc4cc(F)cc(F)c4)nn23)cc1 [Compound 111] | 5.70 to 7.00
Nc1nn2c(Cc3ccc(OCc4ccccc4)cc3)nnc2s1 [Compound 1] | < 5.70
Cc1ccc(Nc2nn3c(Cc4ccc(O)cc4)nnc3s2)cc1C [Compound 72] | 5.70 to 7.00
CC(C)Nc1ccc2nnc(Cc3ccc(O)cc3)n2n1 [Compound 276] | 5.70 to 7.00
Oc1ccc(Cc2nnc3sc(Nc4ccc(C(F)(F)F)cc4)nn23)cc1 [Compound 43] | > 7.00
CCCC(C)Nc1ccc2nnc(Cc3ccc(O)cc3)n2n1 (stereo not shown) [Compound 280] | 5.70 to 7.00
Fc1cccc(Nc2ccc3nnc(Cc4ccc5c(c4)OCO5)n3n2)c1 [Compound 286] | > 7.00
CN(c1ccc2nnc(Cc3ccc(O)cc3)n2n1)C1CCCCC1 [Compound 196] | 5.70 to 7.00

SMILES | pKi
CNC(=O)c1nn2c(C(C)c3ccc(O)cc3)nnc2s1 (stereo not shown) [Compound 87] | < 5.70
Cc1cccc(Nc2nn3c(Cn4ccc5ncccc54)nnc3s2)c1 [Compound 135] | 5.70 to 7.00
CNC(=O)c1cccc(Nc2ccc3nnc(Cc4ccc(O)cc4)n3n2)c1 [Compound 232] | 5.70 to 7.00
CC(Oc1ccc2ncccc2c1)c1nnc2sc(Nc3cccc(Cl)c3)nn12 (stereo not shown) [Compound 163] | < 5.70
COc1ccccc1Nc1nn2c(C(C)c3ccc(O)cc3)nnc2s1 (stereo not shown) [Compound 32] | 5.70 to 7.00
FC(F)(F)c1cccc(Nc2ccc3nnc(Cc4ccc5c(c4)OCO5)n3n2)c1 [Compound 226] | 5.70 to 7.00
COc1ccc(Cc2nnc3sc(CNC(C)=O)nn23)cc1 [Compound 23] | < 5.70
COc1ccc(Nc2nn3c(Cc4ccc5c(c4)OCO5)nnc3s2)cc1 [Compound 65] | 5.70 to 7.00
CC(c1ccc(O)cc1)c1nnc2sc(C(=O)NC3CC3)nn12 (stereo not shown) [Compound 90] | < 5.70
COc1ccc(Cc2nnc3sc(-c4ccccn4)nn23)cc1 [Compound 20] | 5.70 to 7.00
Oc1cccc(Cc2nnc3sc(Nc4cccc(C(F)(F)F)c4)nn23)c1 [Compound 137] | 5.70 to 7.00
OCCCCNc1ccc2nnc(Cc3ccc(O)cc3)n2n1 [Compound 198] | 5.70 to 7.00
Oc1ccc(Cc2nnc3ccc(NC4CC5CCC4C5)nn23)cc1 (stereo not shown) [Compound 275] | > 7.00
c1ccc([C@@H]2C[C@H]2c2nn3c(Cc4ccc5c(c4)OCO5)nnc3s2)cc1 [Compound 47] | < 5.70
Oc1ccc(Cc2nnc3ccc(Nc4cccc(Cl)c4)nn23)cc1 [Compound 185] | > 7.00
Oc1cccc(Cc2nnc3sc(Nc4cccc(F)c4)nn23)c1 [Compound 122] | 5.70 to 7.00
N#Cc1cccc(Nc2ccc3nnc(Cc4ccc5c(c4)OCO5)n3n2)c1 [Compound 221] | > 7.00
Oc1ccc(Cc2nnc3sc(Nc4ccccc4Cl)nn23)cc1 [Compound 78] | > 7.00
Oc1ccc(Cc2nnc3sc(NC4CCCCC4)nn23)cc1 [Compound 86] | 5.70 to 7.00
Oc1ccc(Cc2nnc3sc(Nc4cccc(F)c4)nn23)cc1 [Compound 59] | > 7.00
CC(c1ccc(O)cc1)c1nnc2sc(C(=O)N3CCCC3)nn12 (stereo not shown) [Compound 89] | < 5.70
Oc1ccc(Cc2nnc3sc(Nc4cccnc4)nn23)cc1 [Compound 81] | > 7.00
